Broadly, the IC50 is the concentration that inhibits the measured activity by half. Lower therefore signals higher potency. The term melting point denotes the temperature, or range, at which the solid turns liquid.

The nature of data set [1]: Nitric oxide (NO) scavenging activity. The following applies: sodium nitroprusside, pH 7.4, 2 hr, 37 °C, Griess reagent. The protocol: The NO radical mop‐up ability of the compounds was evaluated using Kurian et al.[49] previous protocol. […] After 2 hr equilibration at 37 °C, 0.250 mL of Griess reagent was added, and the absorbance of the coloured solution produced was measured at 545 nm against a blank solution lacking the test samples. Subsequently, the % NO scavenging antioxidant capacity of the compounds was expressed as: %Nitricoxidescavenging=1-TestsampleAbs/BlankAbs×100

Data set [2] has as its system Mtb H37Rv. Briefly: microbe, parasite or virus in culture. It is filed as cell-based, Mycobacterium tuberculosis. The following applies: for MIC90: Mycobacterium tuberculosis, H37RV, read-out: GFP Assay – 10pt DR: MIC90.
Data set [3] in a line: DPPH radical scavenging activity. The following applies: DPPH 300 μM in methanol, 30 minutes, 25 °C. The procedure: The capacity of the chemical compounds to decolourize the purple colour of DPPH solution was investigated following a modified procedure of Turkoglu et al..[48] […] The solution was mixed gently before equilibration in a dark compartment for 30 minutes at 25 °C. […] The DPPH radical scavenging ability of each compound was estimated using the expression below: %DPPHscavenging=1-TestsampleAbs/BlankAbs×100

In brackets after ≈: the same amount, converted by molar mass. Several values for one entry are separate records, joined by “and”; a condition that tells them apart may be missing. Identical values can stand only once.

With `Nc1ncnc2c1c(N1CCN(CCO)CC1)nn2-c1ccnc2cc(Cl)ccc12` [10 g, 2‐(4‐(4‐Amino‐1‐(7‐Chloroquinolin‐4‐yl)‐1H‐Pyrazolo[3,4–d]pyrimidin‐3‐yl)piperazin‐1‐yl)ethanol], the IC50 in data set [1] was found to be 280 µM. Moreover, in data set [2], the “GFP Assay – 10pt DR: MIC90” value was greater than 125 µM and the MIC90 stood at 62.5 µM (≈ 26.6 µg/mL). This molecule registered an IC50 in data set [3] of 2960 µM.

`FC(F)(F)Oc1ccc(Nc2ccnc3cc(Cl)ccc23)cc1` [12 g, 7‐Chloro‐N‐(4‐(trifluoromethoxy)phenyl)quinolin‐4‐Amine] displayed a melting point greater than 250 °C. This molecule yielded an IC50 in data set [1] greater than 4000 µM. In data set [3], this molecule showed an IC50 greater than 4000 µM.

For `O=[N+]([O-])c1ccc(Nc2ccnc3cc(Cl)ccc23)cc1` [12 h, 7‐Chloro‐N‐(4‐Nitrophenyl)quinolin‐4‐Amine], the IC50 in data set [1] was found to be 650 µM; in data set [3], 80 µM. Further, the “GFP Assay – 10pt DR: MIC90” value in data set [2] was 62.5 µM. Besides, the MIC90 in data set [2] is greater than 125 µM.

Regarding `O=C1O[C@H]([C@@H](O)CO)C(O)=C1O` [Ascorbic acid, reference compound], the IC50 in data set [1] was greater than 4000 µM; in data set [3], 50 µM.

As to `Nc1ncnc2[nH]ncc12` [Compound 4, 1H‐Pyrazolo[3,4–d]pyrimidin‐4‐Amine], the IC50 was 780 µM in data set [1] and greater than 4000 µM in data set [3].

`Nc1ncnc2[nH]nc(N3CCCCC3)c12` [Compound 8a, 3‐(piperidin‐1‐yl)‐1H‐Pyrazolo[3,4–d]pyrimidin‐4‐Amine] showed a concentration for half-maximal inhibition (IC50) in data set [1] of 800 µM. For the same molecule, in data set [2], the “GFP Assay – 10pt DR: MIC90” value came to 125 µM and the MIC90 was greater than 125 µM. In data set [3], this molecule registered an IC50 of 3400 µM.

`CC1CCN(c2n[nH]c3ncnc(N)c23)CC1` [Compound 8b, 3‐(4‐methylpiperidin‐1‐yl)‐1H‐pyrazolo[3,4–d]pyrimidin‐4‐amine]: the IC50 is 1010 µM in data set [1] and greater than 4000 µM in data set [3].

Regarding `Nc1ncnc2[nH]nc(N3CCOCC3)c12` [Compound 8c, 3‐Morpholino‐1H‐Pyrazolo[3,4–d]pyrimidin‐4‐Amine], the IC50 was 880 µM in data set [1] and greater than 4000 µM in data set [3].

As for `CN1CCN(c2n[nH]c3ncnc(N)c23)CC1` [Compound 8d, 3‐(4‐Methylpiperazin‐1‐yl)‐1H‐Pyrazolo[3,4–d]pyrimidin‐4‐Amine], the IC50 amounted to 800 µM in data set [1] and 580 µM in data set [3]. In data set [2], the “GFP Assay – 10pt DR: MIC90” value turned out to be 62.5 µM. Besides, the MIC90 in data set [2] is greater than 125 µM.

In turn, `CCN1CCN(c2n[nH]c3ncnc(N)c23)CC1` [Compound 8e, 3‐(4‐Ethylpiperazin‐1‐yl)‐1H‐Pyrazolo[3,4–d]pyrimidin‐4‐Amine] yielded a half-maximal inhibitory concentration (IC50) in data set [1] of 980 µM. Moreover, in data set [2], the “GFP Assay – 10pt DR: MIC90” value was found to be 62.5 µM and the MIC90 was greater than 125 µM. Half-maximal inhibition in data set [3] (IC50) required 930 µM.

Take `Nc1ncnc2[nH]nc(N3CCN(CCO)CC3)c12` [Compound 8f]: the results for the 50% inhibitory concentration (IC50) in data set [1] and in data set [3] were 600 µM and 3540 µM, respectively. In addition, the MIC90 in data set [2] was greater than 125 µM.

With `Clc1ccc2c(Cl)ccnc2c1` [Compound 9, 4,7‐dichloroquinoline], the IC50 is 820 µM in data set [1] and greater than 4000 µM in data set [3]. Besides, the MIC90 in data set [2] is greater than 125 µM.

As to `Nc1ncnc2c1cnn2-c1ccnc2cc(Cl)ccc12` [Compound 10a, 1‐(7‐Chloroquinolin‐4‐yl)‐1H‐Pyrazolo[3,4–d]pyrimidin‐4‐Amine], the values for the IC50 in data set [1] and in data set [3] were 2590 µM and greater than 4000 µM, respectively. The MIC90 in data set [2] is greater than 125 µM.

Consider `Nc1ncnc2c1c(N1CCCCC1)nn2-c1ccnc2cc(Cl)ccc12` [Compound 10b, 1‐(7‐Chloroquinolin‐4‐yl)‐3‐(piperidin‐1‐yl)‐1H‐Pyrazolo[3,4–d]pyrimidin‐4‐Amine], for which the IC50 in data set [1] and in data set [3] was greater than 4000 µM throughout. The MIC90 in data set [2] was greater than 125 µM.

For `CC1CCN(c2nn(-c3ccnc4cc(Cl)ccc34)c3ncnc(N)c23)CC1` [Compound 10c, 1‐(7‐chloroquinolin‐4‐yl)‐3‐(4‐methylpiperidin‐1‐yl)‐1H‐pyrazolo[3,4–d]pyrimidin‐4‐amine], half-maximal inhibition in data set [1] (IC50) required 2780 µM. Moreover, in data set [2], the “GFP Assay – 10pt DR: MIC90” value was >125 µM and 125 µM; the MIC90 stood at 62.5 µM (≈ 24.6 µg/mL). In addition, the IC50 in data set [3] worked out at 2100 µM.

Turning to `Nc1ncnc2c1c(N1CCOCC1)nn2-c1ccnc2cc(Cl)ccc12` [Compound 10d, 1‐(7‐Chloroquinolin‐4‐yl)‐3‐Morpholino‐1H‐Pyrazolo[3,4–d]pyrimidin‐4‐Amine], the figures for the IC50 in data set [1] and in data set [3] were 2460 µM and greater than 4000 µM, respectively. Also, the MIC90 in data set [2] was greater than 125 µM.

For `CN1CCN(c2nn(-c3ccnc4cc(Cl)ccc34)c3ncnc(N)c23)CC1` [Compound 10e, 1‐(7‐Chloroquinolin‐4‐yl)‐3‐(4‐Methylpiperazin‐1‐yl)‐1H‐Pyrazolo[3,4–d]pyrimidin‐4‐Amine], the IC50 in data set [1] and in data set [3] was greater than 4000 µM in each case.

In data set [1], `CCN1CCN(c2nn(-c3ccnc4cc(Cl)ccc34)c3ncnc(N)c23)CC1` [Compound 10f, 1‐(7‐Chloroquinolin‐4‐yl)‐3‐(4‐Ethylpiperazin‐1‐yl)‐1H‐Pyrazolo[3,4–d]pyrimidin‐4‐Amine] had an IC50 of 800 µM. Besides, in data set [2], the “GFP Assay – 10pt DR: MIC90” value is >125 µM and 125 µM; the MIC90 was found to be 62.5 µM (≈ 25.6 µg/mL). Besides, the IC50 in data set [3] is greater than 4000 µM.

The molecule `Clc1ccc2c(Nc3ccccc3)ccnc2c1` [Compound 12a, 7‐Chloro‐N‐Phenylquinolin‐4‐Amine] showed a melting point greater than 250 °C. In addition, the midpoint of inhibition in data set [1], the IC50, lay at 500 µM. In addition, in data set [2], the “GFP Assay – 10pt DR: MIC90” value was 62.5 µM and >125 µM; the MIC90 stood at 125 µM (≈ 31.8 µg/mL). In data set [3], this molecule had an IC50 greater than 4000 µM.

Regarding `Fc1ccc(Nc2ccnc3cc(Cl)ccc23)cc1` [Compound 12b, 7‐Chloro‐N‐(4‐Fluorophenyl)quinolin‐4‐Amine], the IC50 is 1920 µM in data set [1] and greater than 4000 µM in data set [3].

The molecule `Clc1ccc(Nc2ccnc3cc(Cl)ccc23)cc1` [Compound 12c, 7‐Chloro‐N‐(4‐Chlorophenyl)quinolin‐4‐Amine] registered a melting point greater than 250 °C. In data set [1], this molecule came in with an IC50 greater than 4000 µM. For the same molecule, the MIC90 in data set [2] was greater than 125 µM. The molecule further had an IC50 in data set [3] greater than 4000 µM.

The molecule `Clc1ccc2c(Nc3ccc(Br)cc3)ccnc2c1` [Compound 12d, N‐(4‐Bromophenyl)‐7‐Chloroquinolin‐4‐Amine] had a melting point greater than 250 °C. In data set [1], this molecule had an IC50 greater than 4000 µM. Moreover, in data set [2], the MIC90 is greater than 125 µM. In data set [3], this molecule displayed an IC50 greater than 4000 µM.

`Cc1ccc(Nc2ccnc3cc(Cl)ccc23)cc1` [Compound 12e, 7‐Chloro‐N‐(p–tolyl)quinolin‐4‐Amine] returned a melting point greater than 250 °C. For the same molecule, the half-maximal inhibitory concentration (IC50) in data set [1] is greater than 4000 µM. Moreover, in data set [3], the IC50 is greater than 4000 µM.

The molecule `COc1ccc(Nc2ccnc3cc(Cl)ccc23)cc1` [Compound 12f, 7‐Chloro‐N‐(4‐Methoxyphenyl)quinolin‐4‐Amine] had an IC50 in data set [1] of 880 µM. For the same molecule, in data set [2], the “GFP Assay – 10pt DR: MIC90” value is greater than 125 µM and the MIC90 came to 62.5 µM (≈ 17.8 µg/mL). The same molecule had an IC50 in data set [3] greater than 4000 µM.

The values are drawn from publication PMC11633360 (ChemistryOpen, 2024).
